Where no end group is shown, it is not given here.
Legend:
patients undergoing ERCP [1] = assay: Incidence and severity of post-ERCP pancreatitis, randomized double-blind placebo controlled study; assay type: in vivo, human
Source text: This was a prospectively randomized, parallel group, double-blind, placebo controlled study conducted at one center. This was the ideal study design for evaluation of the prophylactic use of sPS in ERCP to decrease the incidence of post-ERCP pancreatitis. Parallel group design was necessary because patients usually require only one ERCP and, in any case, the first procedure might have an unknown effect on the outcome of a subsequent ERCP. Double-blinding the study was necessary because a major component of the evaluation related to symptoms such as pain and nauseas, which are, in part, subjective for the patient. The final classification of each patient required an overall medical judgment by the investigator. In order for this to be as objective as possible, the assessor (Principal Investigator) had to be blinded. Placebo control with normal saline was required because there is no approved or medically accepted drug to prevent post-ERCP pancreatitis. Further, sterile normal saline, USP for injection was completely safe with no pharmacological effect and produced a clear, colorless solution, which was indistinguishable from reconstituted sPS.
Patients undergoing ERCP for medical reasons were the appropriate population to evaluate because only those requiring ERCP have the procedure and are subject to the known risk of post-ERCP pancreatitis. The patients had to meet all of the inclusion criteria to be enrolled in the study. […] Subjects were discontinued for the following reasons: (1) voluntary withdraw at subject's request; (2) noncompliance by subject to study procedures; (3) protocol violation such as discovery of pancreas divisum at the time of the ERCP, or (4) excessive toxicity from any study procedure or drug which in the judgment of the investigator makes continuation in the study contrary to the subject's medical interests. Subjects who discontinued from the study after receiving study drug were followed for safety and were replaced.
This study compared synthetic porcine secretin (sPS) at a dose of 16 mcg (8 mL) (24 mcg for procedures longer than 30 minutes) given as a slow IV push over one minute and an equal volume of physiologic sterile saline USP for injection. Subjects were randomly assigned to one of two treatment groups (sPS vs. saline placebo) based on a randomization schedule generated at ChiRhoClin, Inc (Burtonsville, Md.). […] The final syringe with an identical appearing clear, colorless solution of identical volume containing either reconstituted sPS or saline was then delivered to the investigator performing the ERCP. The randomization code assigned patients in a 1:1 manner between the two treatments and was balanced in blocks of 250 patients.
(§1) Incidence of post-ERCP pancreatitis (sPS vs. placebo) was evaluated as the primary efficacy variable in this study. Secondary efficacy variables included incidences of post-ERCP pancreatitis in the following sub-populations: (1) cannulation of CBD; (2) sphincterotomy of CBD; (3) cannulation of pancreatic duct; (4) sphincterotomy of pancreatic duct; (5) stent insertion and removal into CBD; (6) stent insertion and removal into pancreatic duct; (7) stone extraction (basket) from CBD; (8) stone extraction (balloon) from CBD; (9) manometry of CBD; (10) manometry of pancreatic duct; (11) pain scores pre and post ERCP (0-10 scale); (12) nausea scores pre and post ERCP (0-10 scale); (13) vomiting scores pre and post ERCP (0-10 scale); (14) return to baseline activity (pre-ERCP); and (15) return to work.
In addition, the severity of pancreatitis was graded as defined by Cotton (Cotton, PB Gastrointest. Endosc. 40(4):514-18 (1994)), using the following criteria: (1) Minimal—managed on an outpatient basis; (2) Mild—Required hospitalization ≦3 days; (3) Moderate—required hospitalization for 4 to 10 days; and (4) Severe—required hospitalization for >10 days, ICU admission, surgical intervention or death. […]

patients undergoing ERCP [2] = assay: Return to baseline (pre-ERCP) activity and return to work; assay type: in vivo, human
Description: as §1
Additional secondary efficacy variables assessed were return to baseline (pre-ERCP levels of activity) and the time in days to return of pre-ERCP activity levels. There was a small difference in the percentage of patients reporting return to baseline activity within the follow-up period (2 to 4 days post-ERCP) favoring the placebo group (p=0.0230) (49.78% vs. 42.09%). Interims of the mean number of days required to achieve pre-ERCP activity levels, was 0.6 (±1.0) for the sPS group and 0.7 (±0.9) for the placebo group. An attempt was made to obtain information on return to work. Relatively few data points were able to be collected, however, because a large percentage of patients were not working pre-ERCP (retired, too ill, etc.) among the 185 patients (95 in the sPS group and 90 in the placebo group) providing relevant responses for this variable, 46.32% of sPS patients and 50.00% of placebo patients reported returning to work within the follow-up period.

[3] = of 44 cases, hospitalization 4 to 10 days
[4] = of 44 cases, hospitalization >10 days, ICU, surgery or death
[5] = of 44 cases, hospitalization ≦3 days
[6] = of 44 cases, managed on an outpatient basis
[7] = overall, N = 488, 16 mcg IV (24 mcg if >30 min), p 0.0161 vs placebo
[8] = sub-population Cannulation of CBD, N = 361
[9] = sub-population Cannulation of CBD, N = 361, p 0.0010
[10] = sub-population Cannulation of Pancreatic Duct, N = 220
[11] = sub-population Cannulation of Pancreatic Duct, N = 220, p 0.1237
[12] = sub-population Manometry of CBD, N = 19
[13] = sub-population Manometry of CBD, N = 19, p 0.0819
[14] = sub-population Manometry of Pancreatic Duct, N = 11
[15] = sub-population Manometry of Pancreatic Duct, N = 11, p 0.3665
[16] = sub-population Sphincterotomy of CBD, N = 140
[17] = sub-population Sphincterotomy of CBD, N = 140, p 0.0001
[18] = sub-population Sphincterotomy of Pancreatic Duct, N = 26
[19] = sub-population Sphincterotomy of Pancreatic Duct, N = 26, p 0.1666
[20] = sub-population Stent Insertion into CBD, N = 108
[21] = sub-population Stent Insertion into CBD, N = 108, p 0.0856
[22] = sub-population Stent Insertion into Pancreatic Duct, N = 23
[23] = sub-population Stent Insertion into Pancreatic Duct, N = 23, p 1.0000
[24] = sub-population Stent Removal from CBD, N = 58
[25] = sub-population Stent Removal from CBD, N = 58, p 0.6185
[26] = sub-population Stent Removal from Pancreatic Duct, N = 17
[27] = sub-population Stent Removal from Pancreatic Duct, N = 17, p 1.0000
[28] = sub-population Stone Extraction (Balloon), N = 55
[29] = sub-population Stone Extraction (Balloon), N = 55, p 1.0000
[30] = sub-population Stone Extraction (Basket), N = 35
[31] = sub-population Stone Extraction (Basket), N = 35, p 0.2298

## synthetic porcine secretin (HSDGTFTSELSRLRDSARLQRLLQGLV-NH2; ends and bridges not checked; UniProt P63298 33-59, looked up) [SPS, synthetic form of porcine secretin, a 27 amino acid gastrointestinal peptide hormone]
Patients undergoing ERCP [1]; N = 488/44
  Post-ERCP Pancreatitis Severity Total (%): 100.0%
  Post-ERCP Pancreatitis Severity Total: number of cases: 44
Patients undergoing ERCP [1]; of 44 cases
  Post-ERCP Pancreatitis Severity Unknown (%): 15.91%
  Post-ERCP Pancreatitis Severity Unknown: number of cases: 7
Patients undergoing ERCP [1]; [3]
  Post-ERCP Pancreatitis Severity Moderate (%): 20.45%
  Post-ERCP Pancreatitis Severity Moderate: number of cases: 9
Patients undergoing ERCP [1]; [4]
  Post-ERCP Pancreatitis Severity Severe (%): 2.27%
  Post-ERCP Pancreatitis Severity Severe: number of cases: 1
Patients undergoing ERCP [1]; [5]
  Post-ERCP Pancreatitis Severity Mild (%): 31.82%
  Post-ERCP Pancreatitis Severity Mild: number of cases: 14
Patients undergoing ERCP [1]; [6]
  Post-ERCP Pancreatitis Severity Minimal (%): 29.55%
  Post-ERCP Pancreatitis Severity Minimal: number of cases: 13
Patients undergoing ERCP [1]; overall, N = 488, 16 mcg IV
  Incidence of Post-ERCP Pancreatitis, No (%): 90.98%
  Incidence of Post-ERCP Pancreatitis, No: number of patients: 444
Patients undergoing ERCP [1]; [7]
  Incidence of Post-ERCP Pancreatitis, Yes (%): 9.02%
  Incidence of Post-ERCP Pancreatitis, Yes: number of patients: 44
Patients undergoing ERCP [1]; relative to placebo, 979 patients, p=0.0137
  magnitude of the decrease in the frequency of post-ERCP pancreatitis: 36.2%
Patients undergoing ERCP [1]; [8]
  Post-ERCP Pancreatitis No (%): 92.52%
  Post-ERCP Pancreatitis No: number of patients: 334
Patients undergoing ERCP [1]; [9]
  Post-ERCP Pancreatitis Yes (%): 7.48%
  Post-ERCP Pancreatitis Yes: number of patients: 27
Patients undergoing ERCP [1]; [10]
  Post-ERCP Pancreatitis No (%): 86.36%
  Post-ERCP Pancreatitis No: number of patients: 190
Patients undergoing ERCP [1]; [11]
  Post-ERCP Pancreatitis Yes (%): 13.64%
  Post-ERCP Pancreatitis Yes: number of patients: 30
Patients undergoing ERCP [1]; [12]
  Post-ERCP Pancreatitis No (%): 78.95%
  Post-ERCP Pancreatitis No: number of patients: 15
Patients undergoing ERCP [1]; [13]
  Post-ERCP Pancreatitis Yes (%): 21.05%
  Post-ERCP Pancreatitis Yes: number of patients: 4
Patients undergoing ERCP [1]; [14]
  Post-ERCP Pancreatitis No (%): 54.58%
  Post-ERCP Pancreatitis No: number of patients: 6
Patients undergoing ERCP [1]; [15]
  Post-ERCP Pancreatitis Yes (%): 45.45%
  Post-ERCP Pancreatitis Yes: number of patients: 5
Patients undergoing ERCP [1]; [16]
  Post-ERCP Pancreatitis No (%): 95.00%
  Post-ERCP Pancreatitis No: number of patients: 133
Patients undergoing ERCP [1]; [17]
  Post-ERCP Pancreatitis Yes (%): 5.00%
  Post-ERCP Pancreatitis Yes: number of patients: 7
Patients undergoing ERCP [1]; [18]
  Post-ERCP Pancreatitis No (%): 57.85%
  Post-ERCP Pancreatitis No: number of patients: 14
Patients undergoing ERCP [1]; [19]
  Post-ERCP Pancreatitis Yes (%): 46.15%
  Post-ERCP Pancreatitis Yes: number of patients: 12
Patients undergoing ERCP [1]; [20]
  Post-ERCP Pancreatitis No (%): 97.22%
  Post-ERCP Pancreatitis No: number of patients: 105
Patients undergoing ERCP [1]; [21]
  Post-ERCP Pancreatitis Yes (%): 2.78%
  Post-ERCP Pancreatitis Yes: number of patients: 3
Patients undergoing ERCP [1]; [22]
  Post-ERCP Pancreatitis No (%): 78.26%
  Post-ERCP Pancreatitis No: number of patients: 18
Patients undergoing ERCP [1]; [23]
  Post-ERCP Pancreatitis Yes (%): 21.74%
  Post-ERCP Pancreatitis Yes: number of patients: 5
Patients undergoing ERCP [1]; sub-population Stent Insertion into Pancreatic Duct, N = 23, p 1.0000, listed as sPS
  Post-ERCP Pancreatitis Yes (%): 21.7%
Patients undergoing ERCP [1]; [24]
  Post-ERCP Pancreatitis No (%): 98.28%
  Post-ERCP Pancreatitis No: number of patients: 57
Patients undergoing ERCP [1]; [25]
  Post-ERCP Pancreatitis Yes (%): 1.72%
  Post-ERCP Pancreatitis Yes: number of patients: 1
Patients undergoing ERCP [1]; [26]
  Post-ERCP Pancreatitis No (%): 88.24%
  Post-ERCP Pancreatitis No: number of patients: 15
Patients undergoing ERCP [1]; [27]
  Post-ERCP Pancreatitis Yes (%): 11.76%
  Post-ERCP Pancreatitis Yes: number of patients: 2
Patients undergoing ERCP [1]; [28]
  Post-ERCP Pancreatitis No (%): 92.73%
  Post-ERCP Pancreatitis No: number of patients: 51
Patients undergoing ERCP [1]; [29]
  Post-ERCP Pancreatitis Yes (%): 7.27%
  Post-ERCP Pancreatitis Yes: number of patients: 4
Patients undergoing ERCP [1]; [30]
  Post-ERCP Pancreatitis No (%): 97.14%
  Post-ERCP Pancreatitis No: number of patients: 34
Patients undergoing ERCP [1]; [31]
  Post-ERCP Pancreatitis Yes (%): 2.86%
  Post-ERCP Pancreatitis Yes: number of patients: 1
Patients undergoing ERCP [2]; in vivo
  mean number of days required to achieve pre-ERCP activity levels: 0.6 (±1.0) days
Patients undergoing ERCP [2]; within the follow-up period (2 to 4 days post-ERCP), p=0.0230 favoring placebo
  percentage of patients reporting return to baseline activity: 42.09%
Patients undergoing ERCP [2]; within the follow-up period, 95 patients in the sPS group, not significant
  patients reported returning to work: 46.32%

Source: patent publication US7947285B2, “Methods for preventing post endoscopic retrograde cholangiopancreatography pancreatitis” (priority 2003, dated 2011)
